In US6365620B2, “Trifluoromethylpyrrolcarboxamides” (Syngenta Crop Protection, Inc., priority 1998, dated 2002):

melting point: 100 to 102 °C
Structure (SMILES): Cn1cc(C(=O)Nc2ccccc2-c2ccccc2)c(C(F)(F)F)c1 [Compound 1.01, N-(2-biphenylyl)-1-methyl-4-trifluoromethylpyrrol-3-carboxamide]
